According to patent US20240041877A1, “DOSAGE REGIME AND METHOD FOR TREATING PULMONARY ARTERIAL HYPERTENSION” (Altavant Sciences GmbH, priority 2019, published 2024):

Test: Part 2 (MAD): plasma pharmacokinetics after BID oral KAR5585 for 14 days (incl. accumulation ratios and dose proportionality)
[1] = 200 mg/dose Fed Cohort 3, Day 1 PM, Geo. Mean
[2] = 200 mg/dose Fed Cohort 3, Day 1 PM, Mean
[3] = 200 mg/dose Fed Cohort 3, Day 7 AM, Geo. Mean
[4] = 200 mg/dose Fed Cohort 3, Day 7 AM, Mean
[5] = 200 mg/dose Fed Cohort 3, Day 7 PM, Geo. Mean
[6] = 200 mg/dose Fed Cohort 3, Day 7 PM, Mean
[7] = 200 mg/dose Fed Cohort 3, Day 14, Geo. Mean
[8] = 200 mg/dose Fed Cohort 3, Day 14, Mean
[9] = 400 mg/dose Fasted Cohort 4, Day 1 AM, Geo. Mean
[10] = 400 mg/dose Fasted Cohort 4, Day 1 AM, Mean
[11] = 400 mg/dose Fasted Cohort 4, Day 1 PM, Geo. Mean
[12] = 400 mg/dose Fasted Cohort 4, Day 1 PM, Mean
[13] = 400 mg/dose Fasted Cohort 4, Day 7 AM, Geo. Mean
[14] = 400 mg/dose Fasted Cohort 4, Day 7 AM, Mean
[15] = 400 mg/dose Fasted Cohort 4, Day 7 PM, Geo. Mean
[16] = 400 mg/dose Fasted Cohort 4, Day 7 PM, Mean
[17] = 400 mg/dose Fasted Cohort 4, Day 14, Geo. Mean
[18] = 400 mg/dose Fasted Cohort 4, Day 14, Mean
[19] = power model, PK Day 1 (AM), 100 to 400 mg KAR5585 repeat oral doses, fed
[20] = power model, PK Day 7 (AM), 100 to 400 mg KAR5585 repeat oral doses, fed
[21] = power model, PK Day 14 (AM), 100 to 400 mg KAR5585 repeat oral doses, fed

Excerpt: Food effect was to be evaluated in Part 1, Period 2.
Pharmacokinetic data were to be summarized descriptively.

`CCOC(=O)[C@@H]1CC2(CCN(c3cc(O[C@H](c4ccc(Cl)cc4-c4ccccc4)C(F)(F)F)nc(N)n3)CC2)CN1` [KAR5585, (S)-ethyl 8-(2-amino-6-((R)-1-(5-chloro-[1,1′-biphenyl]-2-yl)-2,2,2-trifluoroethoxy)pyrimidin-4-yl)-2,8-diazaspiro[4.5]decane-3-carboxylate] showed a C12 [1] of 9.57 ng/mL, a CL/F [1] of 493 L/h and a Cmax [1] of 85.4 ng/mL. For the same compound, the Cmax/D [1] was 0.427 (ng/mL)/mg, the t1/2 [1] was 4.24 h and the AUC0-12 [2] was 344 ng·h/mL. For the same compound, the AUC0-24 [2] was 601 ng·h/mL, the AUC0-24/D [2] was 1.5 (hr*ng/mL)/mg and the “AUC0-∞” value [2] was 417 ng·h/mL. For the same compound, the C12 [2] was 9.92 ng/mL, the CL/F [2] was 507 L/h and the Cmax [2] was 90.9 ng/mL. The Cmax/D [2] was 0.455 (ng/mL)/mg, the t1/2 [2] was 4.34 h and the AUC0-12 [3] was 217 ng·h/mL. For the same compound, the “AUC0-∞” value [3] was 256 ng·h/mL, the C12 [3] was 7.36 ng/mL and the CL/F [3] was 924 L/h. For the same compound, the Cmax [3] was 45.6 ng/mL, the Cmax/D [3] was 0.228 (ng/mL)/mg and the t1/2 [3] was 4.21 h. The AUC0-12 [4] was 230 ng·h/mL, the C12 [4] was 7.71 ng/mL and the CL/F [4] was 978 L/h. The Cmax [4] was 48.8 ng/mL, the Cmax/D [4] was 0.244 (ng/mL)/mg and the t1/2 [4] was 4.30 h. For the same compound, the Tmax (200 mg/dose Fed Cohort 3, Day 7 AM, Median) was 3.0 h, the AUC0-12 [5] was 201 ng·h/mL and the AUC0-24 [5] was 414 ng·h/mL. The AUC0-24/D [5] was 1.03 (hr*ng/mL)/mg, the “AUC0-∞” value [5] was 289 ng·h/mL and the C12 [5] was 11.3 ng/mL. For the same compound, the CL/F [5] was 869 L/h, the Cmax [5] was 39.1 ng/mL and the Cmax/D [5] was 0.195 (ng/mL)/mg. The t1/2 [5] was 5.58 h, the AUC0-12 [6] was 207 ng·h/mL and the AUC0-24 [6] was 431 ng·h/mL. For the same compound, the AUC0-24/D [6] was 1.08 (hr*ng/mL)/mg, the “AUC0-∞” value [6] was 290 ng·h/mL and the C12 [6] was 12.2 ng/mL. The CL/F [6] was 890 L/h, the Cmax/D [6] was 0.213 (ng/mL)/mg and the t1/2 [6] was 6.20 h. The AUC0-24 [7] was 199 ng·h/mL, the AUC0-24/D [7] was 0.993 (hr*ng/mL)/mg and the C24 [7] was “BLQ”. The CL/F [7] was 1130 L/h, the Cmax/D [7] was 0.217 (ng/mL)/mg and the AUC0-12 [8] was 188 ng·h/mL. For the same compound, the AUC0-24 [8] was 212 ng·h/mL, the AUC0-24/D [8] was 1.06 (hr*ng/mL)/mg and the “AUC0-∞” value [8] was 216 ng·h/mL. For the same compound, the C24 [8] was “BLQ”, the CL/F [8] was 1200 L/h and the Cmax [8] was 48.8 ng/mL. The Cmax/D [8] was 0.244 (ng/mL)/mg, the “Mean CL/F, Day 1” value (400 mg KAR5585 BID, fed) was 1730 L/h and the “Mean steady-state CL/F, Day 14” value (400 mg KAR5585 BID, fed) was 1140 L/h. For the same compound, the AUC0-12 [9] was 253 ng·h/mL, the “AUC0-∞” value [9] was 272 ng·h/mL and the C12 [9] was 7.44 ng/mL. For the same compound, the CL/F [9] was 1470 L/h, the Cmax [9] was 74.0 ng/mL and the Cmax/D [9] was 0.185 (ng/mL)/mg. For the same compound, the t1/2 [9] was 3.00 h, the AUC0-12 [10] was 281 ng·h/mL and the C12 [10] was 7.49 ng/mL. The CL/F [10] was 1730 L/h, the Cmax [10] was 81.8 ng/mL and the Cmax/D [10] was 0.205 (ng/mL)/mg. The AUC0-12 [11] was 501 ng·h/mL, the AUC0-24/D [11] was 0.950 (hr*ng/mL)/mg and the “AUC0-∞” value [11] was 633 ng·h/mL. The C12 [11] was 16.6 ng/mL, the CL/F [11] was 632 L/h and the Cmax/D [11] was 0.276 (ng/mL)/mg. For the same compound, the t1/2 [11] was 4.18 h, the AUC0-12 [12] was 528 ng·h/mL and the AUC0-24/D [12] was 1.01 (hr*ng/mL)/mg. The “AUC0-∞” value [12] was 657 ng·h/mL, the C12 [12] was 17.1 ng/mL and the CL/F [12] was 662 L/h. For the same compound, the Cmax [12] was 124 ng/mL, the Cmax/D [12] was 0.310 (ng/mL)/mg and the t1/2 [12] was 4.33 h. For the same compound, the AUC0-12 [13] was 473 ng·h/mL, the “AUC0-∞” value [13] was 577 ng·h/mL and the C12 [13] was 15.1 ng/mL. For the same compound, the CL/F [13] was 846 L/h, the Cmax [13] was 93.3 ng/mL and the Cmax/D [13] was 0.228 (ng/mL)/mg. The t1/2 [13] was 4.65 h, the AUC0-12 [14] was 483 ng·h/mL and the “AUC0-∞” value [14] was 588 ng·h/mL. It also gave a C12 [14] of 15.5 ng/mL, a CL/F [14] of 865 L/h and a Cmax [14] of 95.9 ng/mL. The Cmax/D [14] was 0.240 (ng/mL)/mg, the t1/2 [14] was 4.90 h and the AUC0-12 [15] was 394 ng·h/mL. The AUC0-24/D [15] was 1.09 (hr*ng/mL)/mg, the “AUC0-∞” value [15] was 534 ng·h/mL and the C12 [15] was 20.1 ng/mL. The CL/F [15] was 954 L/h, the Cmax [15] was 63.4 ng/mL and the Cmax/D [15] was 0.158 (ng/mL)/mg. The t1/2 [15] was 4.92 h, the AUC0-12 [16] was 404 ng·h/mL and the AUC0-24 [16] was 887 ng·h/mL. The AUC0-24/D [16] was 1.11 (hr*ng/mL)/mg, the “AUC0-∞” value [16] was 538 ng·h/mL and the C12 [16] was 20.8 ng/mL. The CL/F [16] was 969 L/h, the Cmax/D [16] was 0.172 (ng/mL)/mg and the t1/2 [16] was 4.93 h. The AUC0-12 [17] was 359 ng·h/mL, the AUC0-24 [17] was 433 ng·h/mL and the AUC0-24/D [17] was 1.08 (hr*ng/mL)/mg. For the same compound, the “AUC0-∞” value [17] was 465 ng·h/mL, the C12 [17] was 11.0 ng/mL and the CL/F [17] was 1110 L/h. For the same compound, the Cmax [17] was 85.3 ng/mL, the Cmax/D [17] was 0.213 (ng/mL)/mg and the t1/2 [17] was 6.08 h. The AUC0-12 [18] was 366 ng·h/mL, the AUC0-24 [18] was 444 ng·h/mL and the AUC0-24/D [18] was 1.11 (hr*ng/mL)/mg. The CL/F [18] was 1140 L/h, the Cmax/D [18] was 0.222 (ng/mL)/mg and the Tmax (400 mg/dose Fasted Cohort 4, Day 14, Median) was 1.5 h. The “steady-state plasma levels achieved by” value (BID oral KAR5585 for 14 days) was no more than 7 days, the “Dose proportionality analysis, AUC0-12: Intercept estimate” value [19] was 0.969 and the “Dose proportionality analysis, AUC0-inf: Intercept estimate” value [19] was 0.817. The “Dose proportionality analysis, Cmax: Intercept estimate” value (“Dose proportionality analysis, Cmax” below) [19] was 0.198, the “Dose proportionality analysis, AUC0-12: Intercept estimate” value [20] was 1.51 and the “Dose proportionality analysis, Cmax” value [20] was 0.688. For the same compound, the “Dose proportionality analysis, AUC0-12: Intercept estimate” value [21] was 2.37 and the “Dose proportionality analysis, Cmax” value [21] was 0.705.
